The test system of series [1] is HPBMC, human peripheral blood mononuclear cells. Kind of series: MTT cytotoxicity assay, HPBMC. The series is classed as cell-based. As to conditions: PBMC, 72 h incubation, read-out: IC50 (95% CI) HPBMC. The protocol: Heparinized blood was collected from healthy, non-smoking donors who had not taken any drugs during the 15 days prior to sampling. Human peripheral blood mononuclear cells (HPBMC) were isolated by a standard density-gradient centrifugation method over Ficoll-Hypaque® media (Merck-Sigma-Aldrich, St. Louis, MO, USA). HPBMC were washed and resuspended in RPMI-1640 medium supplemented with 20% fetal bovine serum, 2 mM glutamine, 100 U/mL penicillin, and 100 µg/mL streptomycin at 37 °C with 5% CO2. Phytohemagglutinin (3%) was added at the beginning of the culture.
The cytotoxicity of the compounds was determined using the MTT assay. Cells were seeded in 96-well plates as follows: 0.7 × 10^5 cells/well for adherent cancer cells, 0.3 × 10^5 cells/well for suspended cancer cells, and 0.2 × 10^5 cells/well for HPBMCs. The treatments were dissolved in DMSO and added to each well using an automated liquid handler for high-throughput screening (Biomek 3000—Beckman Coulter, Inc., Fullerton, CA, USA) and incubated for either 24, 48, and 72 h. The control group was treated with the vehicle. […] After incubation, the supernatant was decanted and replaced with fresh medium containing MTT (0.5 mg/mL). Three hours later, the MTT’s formazan product was dissolved in 150 µL of pure DMSO, and absorbance was measured at 595 nm (DTX 880 Multimode Detector, Beckman Coulter, Inc., Pasadena, CA, USA).
Data were presented as mean ± standard error of the mean (SEM) from three independent experiments performed in triplicate, calculated using Prism 8.0 (GraphPad/Intuitive Software for Science, San Diego, CA, USA). The IC50 of the compounds was obtained using a non-linear regression of the cytotoxicity curves.
(Tetrazolium assays rely on reduction of a dye to a coloured formazan, in cell work by metabolically active cells.)

Series [2] concerns SF-295, glioblastoma. Briefly: MTT cytotoxicity assay, SF-295. The note with it: Homo sapiens, SF-295, 72 h, read-out: IC50 (95% CI) SF-295.
Procedure: (§1) The cytotoxicity of the compounds was determined using the MTT assay [13]. Cells were seeded in 96-well plates as follows: 0.7 × 10^5 cells/well for adherent cancer cells, 0.3 × 10^5 cells/well for suspended cancer cells, and 0.2 × 10^5 cells/well for HPBMCs. […] The control group was treated with the vehicle. […] After incubation, the supernatant was decanted and replaced with fresh medium containing MTT (0.5 mg/mL).
The test system of series [3] is N-87, gastric carcinoma. Kind of series: MTT cytotoxicity assay, N-87. The note with it: Homo sapiens, 72 h, read-out: IC50 (95% CI) N-87.
Procedure: as §1
The subject of series [4] is MDA-MB435. On the set-up: method as in PMID 16722619, PMID 21488686. As to conditions: lowest IC50 value among cancer cell lines; cited from earlier work.
Series [5] concerns HCT-116 human colorectal cancer cells (colon carcinoma). Briefly: MTT cytotoxicity assay, HCT-116. As to conditions: for IC50: Homo sapiens; for SI HPBMC/HCT-116: IC50 for HPBMC/IC50 for the tumor cell line, 72 h.
Procedure: as §1
The test system of series [6] is H-1975, non-small cell lung adenocarcinoma. Kind of series: MTT cytotoxicity assay, H-1975. The note with it: Homo sapiens, NCI-H1975, 72 h, read-out: IC50 (95% CI) H-1975.
Procedure: as §1
Series [7] deals with PC-3, prostate adenocarcinoma. Briefly: MTT cytotoxicity assay, PC-3. As to conditions: Homo sapiens, 72 h, read-out: IC50 (95% CI) PC-3.
Procedure: as §1
In series [8] the test system is PC-9, lung adenocarcinoma (overexpressed EGFR with L858R mutation). Briefly: MTT cytotoxicity assay, PC-9. The note with it: for SI HPBMC/PC-9: IC50 for HPBMC/IC50 for the tumor cell line.
Procedure: as §1
On the set-up of series [9]: method as in Literature (reference not given). The note with it: absorbed fraction of PAMPA-GIT controls; ref Literature (reference not given); cited from earlier work. (In general: In PAMPA a lipid-coated filter parts donor from acceptor wells.)
The nature of series [10]: PAMPA-BBB permeability. Type of series: in vitro ADME. As to conditions: for Papp: PAMPA; for Pe1 (Experimental): replicate 1; for Pe2 (Experimental): replicate 2.
Procedure: (§2) For this, two 96-well plates were placed one above the other, and between them, an artificial hydrophobic polyvinylidene fluoride (PVDF) membrane, which was impregnated with a lipid solution. The top plate works as the donor compartment and the bottom one as the receiver compartment.
Parallel artificial membrane permeation assay for the blood–brain barrier (PAMPA-BBB): It was performed according to the previously reported [26] method established by Lu and coworkers [27].
Series [11] is described as follows: PAMPA-GIT permeability. The series is classed as in vitro ADME. As to conditions: for Fa%: PAMPA-GIT predicted absorbed fraction, 0–30% low, 30–69% medium, 70–100% high absorption; for Papp at 5 h, 0.5 mM: PAMPA-GIT, room temperature, read-out: Pe (Experimental).
Source text: as §2
Parallel artificial membrane permeation assay for gastrointestinal tract (GIT-PAMPA): 1% (w/v) phosphatidylcholine was mixed with dodecane as a lipid solution to impregnate the PVDF membrane between the donor and receiver plates to stimulate intestinal permeability. […] A total of 180 µL of the mixture of PBS and DMSO (v/v 95:5) was added to the recipient plate, and 180 µL of the test solution was added to the donor plate. Immediately and carefully, the donor plate was placed above the receiver plate and incubated for 5 h at room temperature. The solution captured on the receptor plate was removed and subsequently analyzed by a UV detector (SpectraMax 5®—Molecular Devices, Sao Jose, CA, USA). The experiments were performed in quadruplicate.
For series [12], the system named is MDA -MB231. On the set-up: method as in PMID 23459143. The note with it: 24 h incubation; cited from earlier work.
The test system of series [13] is MCF-7. Also on record: method as in PMID 23459143. The note with it: 24 h incubation; cited from earlier work.
Setting [14] is: HCT-116, 72 h, read-out: IC50 (95% CI) HCT-116.
The mark [15] stands for this setting: Homo sapiens, 72 h, read-out: IC50 (95% CI) PC-9.

These results are taken from PMC10144566, “Pharmacokinetic Profile Evaluation of Novel Combretastatin Derivative, LASSBio-1920, as a Promising Colorectal Anticancer Agent” (Pharmaceutics, 2023).

For orientation: IC50 means the point on the concentration scale where inhibition reaches its midpoint.

Like-named read-outs stand apart in the source and are kept apart here.

For the molecule `COc1cc(C(=O)NN=Cc2ccccc2)cc(OC)c1OC` [LASSBio-1586], the IC50 is 1340 nM in series [1]; 260 nM in [2]; 820 nM in series [3]; 64 nM in series [4]; 320 nM in series [5] (setting [14]); 2830 nM in series [6]. The results for the IC50 in series [7] and in [8] (setting [15]) were 920 nM and 750 nM, respectively. Further, in [5], the “SI HPBMC/HCT-116” value came to 4.2. Also, the “SI HPBMC/PC-9” value in [8] (72 h) stood at 1.8.

With `CO/N=C(\C(=O)N[C@@H]1C(=O)N2C(C(=O)O)=C(CSc3nc(=O)c(=O)[nH]n3C)CS[C@H]12)c1csc(N)n1` [Ceftriaxone], in series [9], the “Fa (Literature)” value is reported as 1.

Consider `CCOc1cc2ncc(C#N)c(Nc3ccc(F)c(Cl)c3)c2cc1NC(=O)/C=C/CN(C)C` [PELITINIB, Pelitinib], for which the IC50 is 330 nM in series [3]; 4400 nM in series [6]; 530 nM in [8] (read-out: IC50 (95% CI) PC-9, 72 h incubation, MTT).

Take `CCN(CC)CCNC(=O)c1c(C)[nH]c(/C=C2\C(=O)Nc3ccc(F)cc32)c1C` [SUNITINIB, Sunitinib]: the IC50 in series [3] was 10900 nM; in [6], 4480 nM.

Turning to `CCn1cc(C(=O)O)c(=O)c2cc(F)c(N3CCNCC3)nc21` [Enoxacin], the Papp in [10] (PAMPA-BBB classification: absorbed by the Central Nervous System, read-out: CNS Permeability) is under 1.13 ×10⁻⁶ cm/s. Also, the Papp in series [10] (PAMPA-BBB, mean, read-out: Pe (Experimental Mean)) turned out to be 0.3 ×10⁻⁶ cm/s. In [10] (PAMPA-BBB), the “Pe1 (Experimental)” value is 0.48 10–6 cm/s and the “Pe2 (Experimental)” value is listed as 0.06 10–6 cm/s.

Turning to `CCn1cc(C(=O)O)c(=O)c2cc(F)c(N3CCNCC3)cc21` [Norfloxacin], the Fa% in series [11] is given as 51.39%.

For `O=c1ccc2ccccc2o1` [Coumarin], in [11], the Papp at 5 h, 0.5 mM stood at 26 ×10⁻⁶ cm/s.

Turning to `CNC(=C[N+](=O)[O-])NCCSCc1ccc(CN(C)C)o1` [Ranitidine], in [11], the Fa% was 16.50% and the Papp at 5 h, 0.5 mM was determined as 0.2 ×10⁻⁶ cm/s.

In the case of `O=C(O)Cc1ccccc1Nc1c(Cl)cccc1Cl` [Diclofenac], in series [11], the Fa% was 100.0%. Also, the “Fa (Literature)” value in [9] is listed as 100.

With `COc1ccc(/C=C\c2cc(OC)c(OC)c(OC)c2)cc1O` [CA4, Combretastatin A-4], the IC50 in series [1] is 4.7 nM; in [12], 110 nM; in [2] it was 8 nM; in series [3] it was 3340 nM; in series [13], 10 nM; in series [5] (HCT-116, 48 h, read-out: IC50 (95% CI) HCT-116 48 h) it was 200 nM. Also, the IC50 in series [5] (setting [14]) turned out to be 2.1 nM; in series [5] (HCT-116, 72 h, read-out: IC50 (95% CI) HCT-116 72 h), 2.1 nM; in series [6] it was 35 nM; in [7], 8 nM; in series [8] (Homo sapiens, 24 h, read-out: IC50 (95% CI) PC-9 24 h) it was 2600 nM; in [8] (Homo sapiens, 48 h, read-out: IC50 (95% CI) PC-9 48 h) it was 1380 nM. In addition, the IC50 in [8] (setting [15]) is 110 nM; in series [8] (Homo sapiens, 72 h, read-out: IC50 (95% CI) PC-9 72 h), 110 nM. Moreover, the “SI HPBMC/HCT-116” value in [5] was found to be 2.24. Also, the “SI HPBMC/PC-9” value in series [8] (72 h) was found to be 0.043.

Take `Cn1c(=O)c2c(ncn2C)n(C)c1=O` [Caffeine]: in [10] (PAMPA-BBB), the “Pe1 (Experimental)” value is reported as 0.36 10–6 cm/s and the “Pe2 (Experimental)” value was −0.10 10–6 cm/s.
